# Assay results reported in ChEMBL document CHEMBL3988442, “University of Dundee, Small-Polar-MMV Screening Library” (2021).
# Where “and” joins values, the source holds several entries; their conditions need not be identical. Identical values can stand only once.
# Tests used:
# [1] = target: Tryptophan--tRNA ligase (Mycobacterium tuberculosis (strain ATCC 25618 / H37Rv), UniProt P9WFT3); test: Biochemical assay for Mt-TrpRS; format: functional
# [2] = system: Plasmodium falciparum; test: Calibr Malaria Delayed Death Assay SOP; format: functional, organism-based; conditions: for IC50: Plasmodium falciparum
# [3] = In vitro enzyme assay to detect hydrolysis of chlorophenol red-beta-D-[…] directly proportional to the number of Toxoplasma stably expressing beta-galactosidase; format: functional, organism-based, Toxoplasma gondii; conditions: for IC50: Toxoplasma gondii
# [4] = target: ClpP1P2 (Mycobacterium tuberculosis (strain ATCC 25618 / H37Rv), UniProt P9WPC3+P9WPC5); test: in vitro assay to detect presence of AMC directly proportional to the activity of ClpP1P2. GHDDI collaboration.; format: functional
# [5] = microbe, parasite or virus in culture; conditions: Mycobacterium tuberculosis, 72 h, read-out: pIC50 (converted)
# [6] = microbe, parasite or virus in culture; conditions: Mycobacterium tuberculosis, 96 h, read-out: pIC50 (converted)
# [7] = system: Schistosoma mansoni; test: High throughput screening of compounds against Schistosoma mansoni motility; format: functional; set-up: dose or concentration left out as unconfirmed
SMILES,IC50 [1],IC50 [3],other results
O=C(CCc1cccnc1)N1CCC(c2cnccn2)CC1,> 195 µM,–,–
CN1CCN(Cc2cn3c(n2)CN(Cc2ccncc2)CC3)CC1,> 195 µM,–,–
COc1ccc(C2Nc3cc(Cl)ccc3C3=NCCN32)cc1O (stereo not given),> 195 µM,–,–
CC(C)Nc1cc(-c2c[nH]nc2C2CCN(C(=O)C3CC3)C2)ccn1 (stereo not given),–,0.423 µM,pIC50 [2]: 6.541; IC50 [2]: 0.269 µM
Cc1sc2c(C3CCCN(C)C3)nc(C)n2c1C (stereo not given),> 195 µM,–,–
Cc1nccc(N2CCCC2CCNS(C)(=O)=O)n1 (stereo not given),> 195 µM,–,–
c1ccc(CO[C@@H]2CN(Cc3ccoc3)[C@@H]3COC[C@@H]32)nc1,> 195 µM,–,–
COCCN1CCC12CCN(C(=O)c1ccc(C)nc1)C2 (stereo not given),> 195 µM,–,–
CCCS(=O)(=O)N1CC(=O)N(Cc2cccc(OC)c2OC)CC(O)C1 (stereo not given),> 195 µM,–,–
CSc1ccccc1C(=O)NCc1cc2n(n1)CCCN(CC(C)C)C2,> 195 µM,–,–
CCOCC(O)CNc1cncc(Br)c1 (stereo not given),> 195 µM,–,–
COc1ccc([C@@H]2CN(C(=O)CCn3cccn3)C[C@H]2NC(C)=O)cc1,> 195 µM,–,–
O=C(NC[C@H]1CC[C@H](c2nnc(-c3cccnc3)o2)CC1)C1CC1,> 195 µM,–,–
COc1cccc(OC)c1CN1CC(O)CN(S(C)(=O)=O)CC1=O (stereo not given),> 195 µM,–,–
CN(C)C(CNCc1nc(-c2ccsc2)no1)c1ccsc1 (stereo not given),> 195 µM,–,–
O=C(N[C@@H]1CN(Cc2ccc3[nH]ccc3c2)C[C@H]1O)c1cscn1,> 195 µM,–,–
CC(C)(C)c1cn2c(n1)C(CNCc1ccccn1)CCC2 (stereo not given),–,2.04 µM,pIC50 [2]: 6.014; IC50 [2]: 0.881 µM
O=C1CC[C@H]2[C@H](CCN2c2ncccn2)N1c1ccccc1,> 195 µM,–,–
Nc1nccnc1C1CN(Cc2ccc(OCC(=O)O)cc2)CCO1 (stereo not given),> 195 µM,–,–
N#Cc1ccc(CN2CCCCC2Cn2cccn2)cc1 (stereo not given),> 195 µM,–,–
NC(=O)CN1CCC(c2cccc(Oc3ccccc3)n2)CC1,> 195 µM,–,–
CN(C)CCn1c([C@H]2CCCO2)cc2cccnc21,> 195 µM,–,–
Cc1cc(C)nc(C2CCN(C(=O)c3cncnc3C)C2)n1 (stereo not given),> 195 µM,–,–
COCCNC(=O)c1ccccc1-n1cc(CN)cn1,> 195 µM,–,–

SMILES,IC50 [1],IC50 [3],other results
Cn1c(C(=O)NCC2(N)CCCC2)cc2ccccc21,> 195 µM,–,–
O=C(C1CC1)N1CCN2C[C@@H](CO)[C@H](c3ccccc3)[C@H]2C1,> 195 µM,–,–
C[C@]1(O)CN(CCC(N)=O)CC[C@@H]1Oc1cccc(F)c1,> 195 µM,–,–
COc1ccc2c(c1)CN(Cc1ccco1)C(=O)CCN2,> 195 µM,–,–
O=C(O)C1(Cc2cccc(-c3ccc(F)cc3)c2)CCOCC1,> 195 µM,–,–
CN(C)C(=O)CO[C@H]1CN(Cc2ccsc2)[C@@H]2COC[C@H]12,> 195 µM,–,–
CCn1cc(N)c(-c2nnc3n2CCC3)n1,> 195 µM,–,–
Cc1cccc(CN2CCCC2c2cccc(CCC(=O)O)n2)c1 (stereo not given),> 195 µM,–,–
CCn1cc(C(=O)N2CCCC(c3nccs3)C2)cn1 (stereo not given),> 195 µM,–,–
OC1CCCN(Cc2ccnc(-c3cccnc3)n2)C1 (stereo not given),> 195 µM,–,–
OC1CCN(Cc2c(-c3ccco3)[nH]c3ncccc23)CC1,> 195 µM,–,–
CN(C)CCN1C[C@@H]2CN(c3ccccc3)C[C@@H]2C1=O,> 195 µM,–,–
Cc1ccc(C(=O)NS(=O)(=O)c2cc(Br)ccc2C)c(=O)[nH]1,> 195 µM,–,–
O=C(C1CCOC1)N1C[C@@H]2CCN(C(=O)c3cscn3)[C@@H]2C1 (stereo not given in full),> 195 µM,–,–
Nc1nc2c(c(NC3CCCC3)n1)CCN(C(=O)C1CCOC1)CC2 (stereo not given),> 195 µM,–,–
Cn1nc(C2CN(C(=O)c3ccncc3)C2)c2nccnc21,> 195 µM,–,–
CN1CCC(c2cncc(-c3cccc(Cl)c3)n2)CC1,> 195 µM,–,–
O=C1CN(C(=O)c2cccc(C(F)(F)F)c2)CC(O)CN1CC1CC1 (stereo not given),> 195 µM,–,–
Cc1cc(CN2CCN(C(=O)NCc3ccco3)CC2)no1,> 195 µM,–,–
Cn1ccc(C(=O)N2CCCC(c3cc(O)n(C)n3)C2)n1 (stereo not given),> 195 µM,–,–
CC(C(=O)NCc1ccc(N2CCCC2)nc1)S(C)(=O)=O (stereo not given),> 195 µM,–,–
CC(=O)N1CCCC1c1cccc(Oc2ccccc2F)n1 (stereo not given),> 195 µM,–,–
O=C(N[C@@H]1CCC[C@@H](N2CCCC2)[C@@H]1O)c1cc2ccccc2[nH]1,> 195 µM,–,–
NCCC(=O)Nc1ccc(-c2ccccc2)cc1,> 195 µM,–,–

SMILES,IC50 [1],IC50 [3],other results
CNC(=O)C1(CCCc2ccncc2)CCN1 (stereo not given),> 195 µM,–,–
Nc1c(N2CCCC2)ncnc1N1CCOCC1,> 195 µM,–,–
O=C(Cn1ccnc1)N1C[C@@H]2CC[C@H](Oc3ccccc3F)[C@@H]2C1,> 195 µM,–,–
COCCc1ncc(CNC2(c3ccc(Cl)cc3Cl)CC2)cn1,> 195 µM,–,–
COCCN1CC(=O)c2sc(NC(C)C)nc2C1,> 195 µM,–,–
Cc1cncc(C2CCN(C(=O)CCc3ccnn3C)CC2)n1,> 195 µM,–,–
NC(=O)CN1CCC(c2noc3cc(F)ccc23)CC1,> 195 µM,–,–
Cc1cc(C[C@@H]2COC[C@H]2NCc2ccc(Cl)c(Cl)c2)on1,> 195 µM,–,–
CCN1CCC2(CC1)CC(CC(=O)N(C)C)c1ccc(F)cc12 (stereo not given),> 195 µM,–,–
OCCN1CCCCC1c1cc[nH]n1 (stereo not given),> 195 µM,–,–
Cn1nccc1CN1CCCC(COc2ccccc2F)C1 (stereo not given),> 195 µM,–,–
Cc1cccnc1C(=O)N1CCC(Cc2cnc3[nH]ccc3c2)CC1,> 195 µM,–,–
CNc1oc(-c2ccc(S(=O)(=O)N(C)C)o2)nc1C#N,–,> 50.1 µM,IC50 [4]: > 100 µM
CCNCc1ccc(OCc2ccc3c(c2)OCCO3)cc1.Cl,–,8.2 µM,IC50 [4]: > 100 µM; pIC50 [3]: 4.872
O=C(CN1CCCC(c2ccn[nH]2)C1)Nc1nc2c(s1)CCC2 (stereo not given),–,0.766 µM,pIC50 [2]: 6.713; IC50 [2]: 0.216 µM
CC(C)CNc1cc(-c2c[nH]nc2C2CCN(C(=O)C3CC3)C2)ccn1 (stereo not given),–,0.274 µM,pIC50 [2]: 6.615; IC50 [2]: 0.233 µM
Cc1cc(C2CCCN(CC(=O)Nc3nc4c(s3)CCC4)C2)n[nH]1 (stereo not given),–,0.781 µM,pIC50 [2]: 6.771; IC50 [2]: 0.185 µM; IC50 [5]: 37.8 µM; IC50 [6]: 47.2 µM
CCC(C#N)NC(=O)c1cnc(OC(C)C)c(Cl)c1 (stereo not given),–,> 50.1 µM,IC50 [5]: 131 µM; IC50 [6]: 291 µM
C=C/C=c1\c(=C/C)oc2c(NCc3ccccc3)nc(CC)nc12,–,37.5 µM,IC50 [5]: 22 µM; IC50 [6]: 19.1 µM
C1CCC(COCCc2noc(C3CNC3)n2)C1,–,19.5 µM,IC50 [5]: 96.5 µM; IC50 [6]: > 501 µM
O=S(=O)(NCC1(O)CCOc2ccccc21)c1ccc(Br)s1 (stereo not given),–,7.49 µM,Percent Effect [7]: -11.19%
CCCS(=O)(=O)NCC(O)C1CCCC1 (stereo not given),–,> 50.1 µM,IC50 [5]: 294 µM; IC50 [6]: 268 µM
CCCNc1cc(-c2c[nH]nc2C2CCN(C(=O)C3CCC3)C2)ccn1 (stereo not given),–,0.368 µM,pIC50 [2]: 6.573; IC50 [2]: 0.237 µM
CC(C)Nc1cc(-c2c[nH]nc2C2CCN(C(=O)C3CCC3)C2)ccn1 (stereo not given),–,0.526 µM,pIC50 [2]: 6.647; IC50 [2]: 0.209 µM

SMILES,IC50 [1],IC50 [3],other results
CCn1cc(CN(C)S(=O)(=O)c2ccc(C(C)C)cc2)cn1,–,> 50.1 µM,IC50 [5]: 46.8 µM; IC50 [6]: 48.5 µM
NC(=O)CCc1ccc(Cl)s1,–,> 50.1 µM,IC50 [5]: > 501 µM; IC50 [6]: 160 µM
Cc1ccc(C(CCNCCCN(C)C)C2CCOC(C)(C)C2)cc1.O=C(O)C(=O)O (stereo not given),–,5.38 µM,pIC50 [2]: 6.22; IC50 [2]: 0.659 µM; pIC50 [3]: 5.301
Cc1cc(C)c(C#N)c(N2C[C@H](C3CC3)[C@@H](N)C2)n1,–,> 50.1 µM,IC50 [5]: 247 µM; IC50 [6]: > 501 µM
COc1ncccc1-c1csc(NCCSC)n1,–,> 50.1 µM,IC50 [5]: 101 µM; IC50 [6]: 284 µM
C(Cc1noc(C2CNC2)n1)OCC1CC1,–,24.8 µM,IC50 [5]: 136 µM; IC50 [6]: 352 µM
Cc1cc(C)n(-c2nc(NCCCO)c3c4c(sc3n2)CCCC4)n1,–,–,IC50 [5]: 45.4 µM; pIC50 [3]: 5.989 and 5.533; IC50 [6]: 41.8 µM
Nc1nc(N)nc(CN2CCCC2c2cccs2)n1 (stereo not given),–,> 50.1 µM,IC50 [5]: 171 µM; IC50 [6]: > 501 µM
Clc1cccc(-c2cccc(N3CCC(NC4CCOCC4)CC3)c2)c1,–,14.4 µM,IC50 [5]: 29.7 µM; IC50 [6]: 34.9 µM
COC(=O)c1[nH]cc(-c2ccccc2)c1N,–,> 50.1 µM,IC50 [5]: 196 µM; IC50 [6]: 172 µM
CC(C)Sc1ccccc1NS(=O)(=O)N(C)C,–,> 50.1 µM,IC50 [5]: 173 µM; IC50 [6]: 252 µM
C=C/C=c1\c(=C/C)oc2c(NCc3ccccc3)nc(C)nc12,–,37.2 µM,IC50 [5]: 20.6 µM; IC50 [6]: 12.1 µM
NC(CC1CCCC1)c1ccc(Oc2ccccc2)cc1 (stereo not given),–,5.29 µM,IC50 [5]: 27.4 µM; IC50 [6]: 24.2 µM
COc1ccc(CCN)c(OC)c1,–,> 50.1 µM,IC50 [5]: 46.8 µM; IC50 [6]: 91.2 µM
NCCC(=O)N1CCCC(CCc2ccc(F)cc2)C1 (stereo not given),–,> 50.1 µM,IC50 [5]: 204 µM; IC50 [6]: 479 µM
CC(C)(N)CN1CCN(c2cccc(Cl)c2)CC1,–,> 50.1 µM,IC50 [5]: 98.6 µM; IC50 [6]: 474 µM
Cc1cc(C(=O)N2CCN(c3nc4c(C(C)C)cccc4s3)CC2)on1,–,> 25.1 µM,IC50 [5]: 21.3 µM; IC50 [6]: 38.5 µM
COc1ccc(-c2ccccc2CCN)c(OC)c1OC,–,3.52 µM,pIC50 [2]: 6.053; IC50 [2]: 0.762 µM; IC50 [5]: 43.4 µM; IC50 [6]: 25.1 µM
CCOC(=O)C1(Cc2ccccc2-c2ccccc2OC)CCNCC1.Cl,–,13.2 µM,pIC50 [2]: 6.391; IC50 [2]: 0.369 µM
COc1cccc(N2CCNCC2C)c1 (stereo not given),–,> 50.1 µM,IC50 [5]: > 501 µM; IC50 [6]: > 501 µM
CCCn1ncc(-c2ccnc(NC3CC(C)(C)NC(C)(C)C3)n2)c1C,–,9.87 µM,pIC50 [2]: 6.559; IC50 [2]: 0.23 µM
NCc1cccc(-c2ccccn2)n1,–,12.4 µM,IC50 [5]: 109 µM; IC50 [6]: 97.6 µM
OCc1cc2ccccc2nc1N1CCSCC1,–,> 50.1 µM,IC50 [5]: 238 µM; IC50 [6]: 282 µM
O=C(c1cc(C2CC2)n[nH]1)N1CCC2(CCCO2)CC1,–,> 50.1 µM,IC50 [5]: > 501 µM; IC50 [6]: > 501 µM
